Experimental data: the NIST ThermoML archive (doi:10.1016/j.jct.2015.01.004)
“And” between values parts separate entries of the source, which are not always exact repeats. Equal values may be shown once. ± gives the expanded uncertainty stated by the source.

Test: molar heat capacity at constant pressure; xn = mol fraction of the nth substance listed
Conditions: 100 kPa

## [Si] [silicon] + [Li]
213.05 K, Crystal of intercomponent compound 2, relaxation calorimeter, x2 = 0.804
  molar heat capacity at constant pressure: 19.41 ± 0.79 J/K/mol
217.1 K, Crystal of intercomponent compound 2, relaxation calorimeter, x2 = 0.804
  molar heat capacity at constant pressure: 19.42 ± 0.79 J/K/mol
217.11 K, Crystal of intercomponent compound 1, relaxation calorimetry, x2 = 0.81
  molar heat capacity at constant pressure: 19.04 ± 0.77 J/K/mol
217.12 K, Crystal of intercomponent compound 2, relaxation calorimeter, x2 = 0.804
  molar heat capacity at constant pressure: 19.59 ± 0.8 J/K/mol
220 K, Crystal of intercomponent compound 1, relaxation calorimetry + DSC, x2 = 0.81
  molar heat capacity at constant pressure: 19.27 ± 0.78 J/K/mol
220 K, Crystal of intercomponent compound 2, relaxation calorimetry + DSC, x2 = 0.804
  molar heat capacity at constant pressure: 19.69 ± 0.8 J/K/mol
221.11 K, Crystal of intercomponent compound 2, relaxation calorimeter, x2 = 0.804
  molar heat capacity at constant pressure: 19.62 ± 0.8 J/K/mol
221.12 K, Crystal of intercomponent compound 1, relaxation calorimetry, x2 = 0.81
  molar heat capacity at constant pressure: 19.24 ± 0.78 J/K/mol
221.13 K, Crystal of intercomponent compound 2, relaxation calorimeter, x2 = 0.804
  molar heat capacity at constant pressure: 19.84 ± 0.81 J/K/mol
225.23 K, Crystal of intercomponent compound 2, relaxation calorimeter, x2 = 0.804
  molar heat capacity at constant pressure: 19.86 ± 0.81 J/K/mol
225.24 K, Crystal of intercomponent compound 1, relaxation calorimetry, x2 = 0.81
  molar heat capacity at constant pressure: 19.46 ± 0.79 J/K/mol
225.25 K, Crystal of intercomponent compound 2, relaxation calorimeter, x2 = 0.804
  molar heat capacity at constant pressure: 20.03 ± 0.81 J/K/mol
229.28 K, Crystal of intercomponent compound 2, relaxation calorimeter, x2 = 0.804
  molar heat capacity at constant pressure: 20.05 ± 0.81 J/K/mol
229.3 K, Crystal of intercomponent compound 1, relaxation calorimetry, x2 = 0.81
  molar heat capacity at constant pressure: 19.66 ± 0.8 J/K/mol
229.31 K, Crystal of intercomponent compound 2, relaxation calorimeter, x2 = 0.804
  molar heat capacity at constant pressure: 20.22 ± 0.82 J/K/mol
230 K, Crystal of intercomponent compound 1, relaxation calorimetry + DSC, x2 = 0.81
  molar heat capacity at constant pressure: 19.74 ± 0.8 J/K/mol
230 K, Crystal of intercomponent compound 2, relaxation calorimetry + DSC, x2 = 0.804
  molar heat capacity at constant pressure: 20.16 ± 0.82 J/K/mol
233.29 K, Crystal of intercomponent compound 2, relaxation calorimeter, x2 = 0.804
  molar heat capacity at constant pressure: 20.23 ± 0.82 J/K/mol
233.3 K, Crystal of intercomponent compound 1, relaxation calorimetry, x2 = 0.81
  molar heat capacity at constant pressure: 19.83 ± 0.81 J/K/mol
233.31 K, Crystal of intercomponent compound 2, relaxation calorimeter, x2 = 0.804
  molar heat capacity at constant pressure: 20.38 ± 0.83 J/K/mol
237.4 K, Crystal of intercomponent compound 2, relaxation calorimeter, x2 = 0.804
  molar heat capacity at constant pressure: 20.4 ± 0.83 J/K/mol
237.41 K, Crystal of intercomponent compound 1, relaxation calorimetry, x2 = 0.81
  molar heat capacity at constant pressure: 20 ± 0.81 J/K/mol
237.43 K, Crystal of intercomponent compound 2, relaxation calorimeter, x2 = 0.804
  molar heat capacity at constant pressure: 20.54 ± 0.83 J/K/mol
240 K, Crystal of intercomponent compound 1, relaxation calorimetry + DSC, x2 = 0.81
  molar heat capacity at constant pressure: 20.18 ± 0.82 J/K/mol
240 K, Crystal of intercomponent compound 2, relaxation calorimetry + DSC, x2 = 0.804
  molar heat capacity at constant pressure: 20.58 ± 0.84 J/K/mol
241.46 K, Crystal of intercomponent compound 2, relaxation calorimeter, x2 = 0.804
  molar heat capacity at constant pressure: 20.62 ± 0.84 J/K/mol
241.48 K, Crystal of intercomponent compound 1, relaxation calorimetry, x2 = 0.81
  molar heat capacity at constant pressure: 20.17 ± 0.82 J/K/mol
241.49 K, Crystal of intercomponent compound 2, relaxation calorimeter, x2 = 0.804
  molar heat capacity at constant pressure: 20.73 ± 0.84 J/K/mol
245.47 K, Crystal of intercomponent compound 2, relaxation calorimeter, x2 = 0.804
  molar heat capacity at constant pressure: 20.87 ± 0.85 J/K/mol
245.48 K, Crystal of intercomponent compound 1, relaxation calorimetry, x2 = 0.81
  molar heat capacity at constant pressure: 20.3 ± 0.82 J/K/mol
245.5 K, Crystal of intercomponent compound 2, relaxation calorimeter, x2 = 0.804
  molar heat capacity at constant pressure: 20.93 ± 0.85 J/K/mol
249.59 K, Crystal of intercomponent compound 2, relaxation calorimeter, x2 = 0.804
  molar heat capacity at constant pressure: 21 ± 0.85 J/K/mol
249.6 K, Crystal of intercomponent compound 1, relaxation calorimetry, x2 = 0.81
  molar heat capacity at constant pressure: 20.44 ± 0.83 J/K/mol
249.62 K, Crystal of intercomponent compound 2, relaxation calorimeter, x2 = 0.804
  molar heat capacity at constant pressure: 21.13 ± 0.86 J/K/mol
250 K, Crystal of intercomponent compound 1, relaxation calorimetry + DSC, x2 = 0.81
  molar heat capacity at constant pressure: 20.59 ± 0.84 J/K/mol
250 K, Crystal of intercomponent compound 2, relaxation calorimetry + DSC, x2 = 0.804
  molar heat capacity at constant pressure: 20.99 ± 0.85 J/K/mol
253.66 K, Crystal of intercomponent compound 2, relaxation calorimeter, x2 = 0.804
  molar heat capacity at constant pressure: 21.14 ± 0.86 J/K/mol
253.67 K, Crystal of intercomponent compound 1, relaxation calorimetry, x2 = 0.81
  molar heat capacity at constant pressure: 20.58 ± 0.84 J/K/mol
253.68 K, Crystal of intercomponent compound 2, relaxation calorimeter, x2 = 0.804
  molar heat capacity at constant pressure: 21.27 ± 0.86 J/K/mol
257.65 K, Crystal of intercomponent compound 2, relaxation calorimeter, x2 = 0.804
  molar heat capacity at constant pressure: 21.3 ± 0.87 J/K/mol
257.66 K, Crystal of intercomponent compound 1, relaxation calorimetry, x2 = 0.81
  molar heat capacity at constant pressure: 20.7 ± 0.84 J/K/mol
257.68 K, Crystal of intercomponent compound 2, relaxation calorimeter, x2 = 0.804
  molar heat capacity at constant pressure: 21.42 ± 0.87 J/K/mol
260 K, Crystal of intercomponent compound 1, relaxation calorimetry + DSC, x2 = 0.81
  molar heat capacity at constant pressure: 20.98 ± 0.85 J/K/mol
260 K, Crystal of intercomponent compound 2, relaxation calorimetry + DSC, x2 = 0.804
  molar heat capacity at constant pressure: 21.37 ± 0.87 J/K/mol
261.78 K, Crystal of intercomponent compound 1, relaxation calorimetry, x2 = 0.81
  molar heat capacity at constant pressure: 20.8 ± 0.84 J/K/mol
261.78 K, Crystal of intercomponent compound 2, relaxation calorimeter, x2 = 0.804
  molar heat capacity at constant pressure: 21.42 ± 0.87 J/K/mol
261.79 K, Crystal of intercomponent compound 2, relaxation calorimeter, x2 = 0.804
  molar heat capacity at constant pressure: 21.54 ± 0.87 J/K/mol
265.83 K, Crystal of intercomponent compound 2, relaxation calorimeter, x2 = 0.804
  molar heat capacity at constant pressure: 21.55 ± 0.88 J/K/mol
265.84 K, Crystal of intercomponent compound 1, relaxation calorimetry, x2 = 0.81
  molar heat capacity at constant pressure: 20.92 ± 0.85 J/K/mol
265.86 K, Crystal of intercomponent compound 2, relaxation calorimeter, x2 = 0.804
  molar heat capacity at constant pressure: 21.64 ± 0.88 J/K/mol
269.82 K, Crystal of intercomponent compound 2, relaxation calorimeter, x2 = 0.804
  molar heat capacity at constant pressure: 21.67 ± 0.88 J/K/mol
269.85 K, Crystal of intercomponent compound 1, relaxation calorimetry, x2 = 0.81
  molar heat capacity at constant pressure: 21.06 ± 0.86 J/K/mol
269.85 K, Crystal of intercomponent compound 2, relaxation calorimeter, x2 = 0.804
  molar heat capacity at constant pressure: 21.75 ± 0.88 J/K/mol
270 K, Crystal of intercomponent compound 1, relaxation calorimetry + DSC, x2 = 0.81
  molar heat capacity at constant pressure: 21.36 ± 0.87 J/K/mol
270 K, Crystal of intercomponent compound 2, relaxation calorimetry + DSC, x2 = 0.804
  molar heat capacity at constant pressure: 21.73 ± 0.88 J/K/mol
273.88 K, Crystal of intercomponent compound 2, relaxation calorimeter, x2 = 0.804
  molar heat capacity at constant pressure: 21.84 ± 0.89 J/K/mol
273.9 K, Crystal of intercomponent compound 1, relaxation calorimetry, x2 = 0.81
  molar heat capacity at constant pressure: 21.15 ± 0.86 J/K/mol
273.91 K, Crystal of intercomponent compound 2, relaxation calorimeter, x2 = 0.804
  molar heat capacity at constant pressure: 21.9 ± 0.89 J/K/mol
278.02 K, Crystal of intercomponent compound 1, relaxation calorimetry, x2 = 0.81
  molar heat capacity at constant pressure: 21.25 ± 0.86 J/K/mol
278.02 K, Crystal of intercomponent compound 2, relaxation calorimeter, x2 = 0.804
  molar heat capacity at constant pressure: 21.93 ± 0.89 J/K/mol
278.04 K, Crystal of intercomponent compound 2, relaxation calorimeter, x2 = 0.804
  molar heat capacity at constant pressure: 22 ± 0.89 J/K/mol
280 K, Crystal of intercomponent compound 1, relaxation calorimetry + DSC, x2 = 0.81
  molar heat capacity at constant pressure: 21.72 ± 0.88 J/K/mol
280 K, Crystal of intercomponent compound 2, relaxation calorimetry + DSC, x2 = 0.804
  molar heat capacity at constant pressure: 22.09 ± 0.9 J/K/mol
282.07 K, Crystal of intercomponent compound 2, relaxation calorimeter, x2 = 0.804
  molar heat capacity at constant pressure: 22.06 ± 0.9 J/K/mol
282.08 K, Crystal of intercomponent compound 1, relaxation calorimetry, x2 = 0.81
  molar heat capacity at constant pressure: 21.37 ± 0.87 J/K/mol
282.09 K, Crystal of intercomponent compound 2, relaxation calorimeter, x2 = 0.804
  molar heat capacity at constant pressure: 22.11 ± 0.9 J/K/mol
284.87 K, Crystal of intercomponent compound 1, Small sample (50 mg) DSC, x2 = 0.81
  molar heat capacity at constant pressure: 22.13 ± 0.54 J/K/mol and 22.16 ± 0.54 J/K/mol
284.87 K, Crystal of intercomponent compound 2, Small sample (50 mg) DSC, x2 = 0.804
  molar heat capacity at constant pressure: 22.41 ± 0.55 J/K/mol
286.06 K, Crystal of intercomponent compound 2, relaxation calorimeter, x2 = 0.804
  molar heat capacity at constant pressure: 22.16 ± 0.9 J/K/mol
286.08 K, Crystal of intercomponent compound 1, relaxation calorimetry, x2 = 0.81
  molar heat capacity at constant pressure: 21.42 ± 0.87 J/K/mol
286.08 K, Crystal of intercomponent compound 2, relaxation calorimeter, x2 = 0.804
  molar heat capacity at constant pressure: 22.26 ± 0.9 J/K/mol
290 K, Crystal of intercomponent compound 1, relaxation calorimetry + DSC, x2 = 0.81
  molar heat capacity at constant pressure: 22.08 ± 0.9 J/K/mol
290 K, Crystal of intercomponent compound 2, relaxation calorimetry + DSC, x2 = 0.804
  molar heat capacity at constant pressure: 22.45 ± 0.91 J/K/mol
290.12 K, Crystal of intercomponent compound 1, relaxation calorimetry, x2 = 0.81
  molar heat capacity at constant pressure: 21.52 ± 0.87 J/K/mol
290.13 K, Crystal of intercomponent compound 2, relaxation calorimeter, x2 = 0.804
  molar heat capacity at constant pressure: 22.36 ± 0.91 J/K/mol
294.26 K, Crystal of intercomponent compound 1, relaxation calorimetry, x2 = 0.81
  molar heat capacity at constant pressure: 21.6 ± 0.88 J/K/mol
294.27 K, Crystal of intercomponent compound 2, relaxation calorimeter, x2 = 0.804
  molar heat capacity at constant pressure: 22.5 ± 0.91 J/K/mol
294.79 K, Crystal of intercomponent compound 2, Small sample (50 mg) DSC, x2 = 0.804
  molar heat capacity at constant pressure: 22.86 ± 0.56 J/K/mol
294.8 K, Crystal of intercomponent compound 1, Small sample (50 mg) DSC, x2 = 0.81
  molar heat capacity at constant pressure: 22.38 ± 0.55 J/K/mol and 22.54 ± 0.55 J/K/mol
298.15 K, Crystal of intercomponent compound 1, relaxation calorimetry + DSC, x2 = 0.81
  molar heat capacity at constant pressure: 22.38 ± 0.91 J/K/mol
